In patent publication US10517863B2, “Trilobine and its natural analogs for use as a drug” (PIERRE FABRE MEDICAMENT, priority 2015, dated 2019):

How the values were obtained:
HCT-116 = experiment: Anti-proliferative activity (ATPLite); type: cell-based; conditions: Homo sapiens; HCT-116, Colorectal; +/− standard error; read-out: Antiproliferative activity EC50
Protocol: (§1) To measure the anti-proliferative properties of tested molecules, 2×10^4 cells are seeded at day 0 in a 96 wells plate. The compounds to be tested, stored at −20° C. as 10^−2 M stock solution in 100% DMSO, are freshly diluted on day 1 in the cell medium, before adding a dose range of 3.2 nM to 10 μM to the cells. The cell viability is assessed using the ATPLite kit from Perkin (ATPlite 1 Step Luminescence Assay System, ref 3016739), following the provider instructions. The raw data are analyzed with GraphPad Prism software (v4.03) to generate IC50 values corresponding to the compound concentrations giving 50% reduction in cell viability. The values presented are the mean results of at least two independent experiments. The standard errors are indicated.

KG-1 = experiment: Anti-proliferative activity (ATPLite); type: cell-based; conditions: Homo sapiens; KG-1, Leukaemia; +/− standard error; read-out: Antiproliferative activity EC50
Protocol: as §1

Karpass299 = experiment: Anti-proliferative activity (ATPLite); type: cell-based; conditions: Homo sapiens; Karpass299, Lymphoma; +/− standard error; read-out: Antiproliferative activity EC50
Protocol: as §1

[1] = biological target: T1, human C-terminal DNMT3A (a.a. 623-908) (Homo sapiens, UniProt Q9Y6K1); experiment: hDNMT3A restriction-based fluorescence assay; type: biochemical; conditions: read-out: hDNMT 3A inhibition, Inhibition (%)
T1 construct: The human C-terminal DNMT3A (a.a. 623-908); made in house
T1 sequence (Q9Y6K1 627-912): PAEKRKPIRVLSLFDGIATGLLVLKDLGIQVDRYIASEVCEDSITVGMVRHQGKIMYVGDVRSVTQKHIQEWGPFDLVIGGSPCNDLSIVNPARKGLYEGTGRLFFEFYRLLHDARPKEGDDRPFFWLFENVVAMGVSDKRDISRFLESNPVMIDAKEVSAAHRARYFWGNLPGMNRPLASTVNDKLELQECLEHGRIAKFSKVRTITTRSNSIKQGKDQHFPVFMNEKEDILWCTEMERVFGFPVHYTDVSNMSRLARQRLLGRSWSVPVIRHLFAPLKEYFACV
Description: hDNMT3A enzyme inhibition was adapted from the restriction-based fluorescence assay protocol as described in the literature (Ceccaldi et al. ChemBioChem 2011, 12, 1337-1345). Briefly, a 5′-labelled biotin oligonucleotide is hybridized to its complementary strand labelled with 6-carboxyfluorescein at the 3′-end into a 384 well microplate (black Optiplates; Perkin Elmer) pre-coated with avidin. The duplex contains a unique CpG site overlapping with a restriction site of a methylation sensitive restriction enzyme. The human C-terminal DNMT3A (a.a. 623-908), produced as described in the literature (Gros et al. Nucl. Acids Res. 2013, 41(19):e185), was added in each well (200 ng/well) and mixed with the chemical compounds at desired concentrations and freshly prepared AdoMet (20 μM final concentration) to start the reaction in a total volume of 50 μL. After 1 hour incubation at 37° C. each well were washed three times with PBS, Tween-20 0.05%, NaCl (500 mM) and three more times with PBST. Specific fluorescent signals were detected with the methylation-sensitive restriction enzyme HpyCH4IV (NEB) as described and measured on a Perkin Elmer Envision detector. The percentage of inhibition is reported. The formula used to calculate the percentage of inhibition is [(X−Y)/X]×100, where X is the signal determined in the absence of the inhibitor and Y is the signal obtained in the presence of the inhibitor. The concentration at which 50% of efficacy of inhibition is observed (EC50) was determined by analysis of a concentration range of the tested compound in triplicates. The non-linear regression fittings with sigmoidal dose-response (variable slope) were performed with GraphPad Prism 4.03 (GraphPad Software).

## COc1ccc2cc1Oc1ccc(cc1)C[C@@H]1NCCc3cc(OC)c4c(c31)Oc1cc3c(cc1O4)CCN(C)[C@H]3C2 [Compound 1, Trilobine]
HCT-116
  EC50: 1200 nM
KG-1
  EC50: 2200 nM
Karpass299
  EC50: 1300 nM
[1]; 10 μM
  inhibition at 10 µM: 78%
[1]; 32 μM
  inhibition at 32 µM: 94%
